Activity calls are given as the source filed them.
Key:
[1] = molecular target: Intestinal-type alkaline phosphatase (Mus musculus, UniProt P24822); assay: PubChem AID 488874; format: functional
[2] = molecular target: T1, Alkaline phosphatase, tissue-nonspecific isozyme (Homo sapiens, UniProt P05186); assay: activation of tissue-nonspecific alkaline phosphatase – biochemical, TNAP isozyme, human IAP uHTS hits, selectivity assay for human IAP activator project, dose response (AID 488886); format: functional;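 further: potency of compounds raising TNAP activity as a selectivity check on IAP activators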
T1 sequence (P05186 whole entry): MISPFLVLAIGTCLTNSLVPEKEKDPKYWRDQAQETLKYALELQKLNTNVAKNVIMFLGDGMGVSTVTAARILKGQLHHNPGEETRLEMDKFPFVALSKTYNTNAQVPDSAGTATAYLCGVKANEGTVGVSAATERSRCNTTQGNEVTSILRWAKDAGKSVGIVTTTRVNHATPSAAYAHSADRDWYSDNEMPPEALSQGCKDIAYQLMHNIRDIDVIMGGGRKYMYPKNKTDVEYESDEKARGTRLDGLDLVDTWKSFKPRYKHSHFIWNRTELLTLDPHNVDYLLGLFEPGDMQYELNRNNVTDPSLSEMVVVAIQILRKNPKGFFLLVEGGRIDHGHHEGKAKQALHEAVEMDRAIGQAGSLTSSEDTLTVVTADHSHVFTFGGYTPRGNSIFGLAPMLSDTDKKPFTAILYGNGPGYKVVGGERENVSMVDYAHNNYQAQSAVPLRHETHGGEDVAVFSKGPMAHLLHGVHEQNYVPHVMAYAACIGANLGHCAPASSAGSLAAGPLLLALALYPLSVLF

[3] = molecular target: T2, Intestinal-type alkaline phosphatase (Homo sapiens, UniProt P09923); assay: activation of human intestinal alkaline phosphatase – biochemical, luminescent, uHTS hits, set 2, dose response (AID 488817); format: functional;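 further: potency of activators that raise enzyme activity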
T2 sequence (P09923 whole entry): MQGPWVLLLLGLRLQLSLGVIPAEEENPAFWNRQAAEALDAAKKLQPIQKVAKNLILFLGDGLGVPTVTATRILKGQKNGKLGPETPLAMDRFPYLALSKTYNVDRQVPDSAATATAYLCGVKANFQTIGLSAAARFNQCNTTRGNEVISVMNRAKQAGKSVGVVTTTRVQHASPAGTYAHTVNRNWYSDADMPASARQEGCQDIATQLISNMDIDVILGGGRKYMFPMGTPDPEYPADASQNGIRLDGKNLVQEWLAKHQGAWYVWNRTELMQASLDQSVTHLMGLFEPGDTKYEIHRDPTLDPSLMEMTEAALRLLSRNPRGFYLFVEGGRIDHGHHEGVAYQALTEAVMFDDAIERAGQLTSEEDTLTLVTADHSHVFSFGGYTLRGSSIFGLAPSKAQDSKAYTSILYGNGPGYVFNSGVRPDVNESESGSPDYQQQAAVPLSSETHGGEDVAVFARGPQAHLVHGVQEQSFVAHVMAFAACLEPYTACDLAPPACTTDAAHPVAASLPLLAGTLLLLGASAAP

[4] = molecular target: T2, Intestinal-type alkaline phosphatase; assay: human intestinal alkaline phosphatase activators, dose response, biochemical, luminescence, uHTS hits (AID 463120); format: functional
H9c2 = assay: cells; format: functional, cell-based; conditions: Rattus norvegicus, H9c2, Myocardium;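 further: confirmatory concentration-response retest of ultra-high-throughput screening hits for modulation of myocardial damage; cell death induced by hydrogen peroxide oxidative stress; compound pretreatment for 60 min then peroxide exposure for 2 h; potency is for protecting the cells against peroxide damage rather than for killing them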

Sequence of Intestinal-type alkaline phosphatase (Mus musculus, UniProt P24822) (P24822 whole entry): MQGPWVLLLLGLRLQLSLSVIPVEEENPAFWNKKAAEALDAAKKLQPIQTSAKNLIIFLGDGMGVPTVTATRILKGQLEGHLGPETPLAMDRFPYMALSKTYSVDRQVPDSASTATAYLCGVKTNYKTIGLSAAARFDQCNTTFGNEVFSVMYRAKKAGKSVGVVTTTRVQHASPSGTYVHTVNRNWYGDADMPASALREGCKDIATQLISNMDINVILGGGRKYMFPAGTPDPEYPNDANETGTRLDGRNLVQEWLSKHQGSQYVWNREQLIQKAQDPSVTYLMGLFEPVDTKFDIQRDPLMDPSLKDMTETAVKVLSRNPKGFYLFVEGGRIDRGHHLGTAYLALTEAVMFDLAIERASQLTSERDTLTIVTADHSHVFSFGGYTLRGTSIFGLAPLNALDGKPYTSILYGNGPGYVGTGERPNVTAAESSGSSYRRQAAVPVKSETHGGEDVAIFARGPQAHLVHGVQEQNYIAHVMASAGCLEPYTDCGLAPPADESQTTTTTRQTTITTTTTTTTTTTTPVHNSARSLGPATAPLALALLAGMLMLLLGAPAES

**Q.** Which results are given for `CCOCCCNC(=O)CCC(=O)NNc1nc2ccccc2c2nc(-c3ccccc3)nn12`?
**A.** IC50 [1]: 29.6 µM (active); EC50 [2]: 17.7 µM (active); EC50 [3]: 15.2 µM (active); EC50 [4]: 12.6 µM (active); IC50 (H9c2): > 79 µM (inactive)

— ChEMBL document CHEMBL1201862, “PubChem BioAssay data set” (2004)
